In PMC5363571 (Oncotarget, 2016) one finds inhibition data, which are given here for 26 molecules.

Structures are written as SMILES. Counter-ions that a name gives are not always drawn.

For the assay, the target named is USP7 (Homo sapiens, UniProt Q93009). Briefly: biochemical. More on the design: Ub-AMC hydrolysis by recombinant USP7 (20 nM), 30 min pre-incubation, fluorescence read-out. The following applies: read-out: % Inhibition at 50 μM.
USP7, sequence (Q93009 whole entry): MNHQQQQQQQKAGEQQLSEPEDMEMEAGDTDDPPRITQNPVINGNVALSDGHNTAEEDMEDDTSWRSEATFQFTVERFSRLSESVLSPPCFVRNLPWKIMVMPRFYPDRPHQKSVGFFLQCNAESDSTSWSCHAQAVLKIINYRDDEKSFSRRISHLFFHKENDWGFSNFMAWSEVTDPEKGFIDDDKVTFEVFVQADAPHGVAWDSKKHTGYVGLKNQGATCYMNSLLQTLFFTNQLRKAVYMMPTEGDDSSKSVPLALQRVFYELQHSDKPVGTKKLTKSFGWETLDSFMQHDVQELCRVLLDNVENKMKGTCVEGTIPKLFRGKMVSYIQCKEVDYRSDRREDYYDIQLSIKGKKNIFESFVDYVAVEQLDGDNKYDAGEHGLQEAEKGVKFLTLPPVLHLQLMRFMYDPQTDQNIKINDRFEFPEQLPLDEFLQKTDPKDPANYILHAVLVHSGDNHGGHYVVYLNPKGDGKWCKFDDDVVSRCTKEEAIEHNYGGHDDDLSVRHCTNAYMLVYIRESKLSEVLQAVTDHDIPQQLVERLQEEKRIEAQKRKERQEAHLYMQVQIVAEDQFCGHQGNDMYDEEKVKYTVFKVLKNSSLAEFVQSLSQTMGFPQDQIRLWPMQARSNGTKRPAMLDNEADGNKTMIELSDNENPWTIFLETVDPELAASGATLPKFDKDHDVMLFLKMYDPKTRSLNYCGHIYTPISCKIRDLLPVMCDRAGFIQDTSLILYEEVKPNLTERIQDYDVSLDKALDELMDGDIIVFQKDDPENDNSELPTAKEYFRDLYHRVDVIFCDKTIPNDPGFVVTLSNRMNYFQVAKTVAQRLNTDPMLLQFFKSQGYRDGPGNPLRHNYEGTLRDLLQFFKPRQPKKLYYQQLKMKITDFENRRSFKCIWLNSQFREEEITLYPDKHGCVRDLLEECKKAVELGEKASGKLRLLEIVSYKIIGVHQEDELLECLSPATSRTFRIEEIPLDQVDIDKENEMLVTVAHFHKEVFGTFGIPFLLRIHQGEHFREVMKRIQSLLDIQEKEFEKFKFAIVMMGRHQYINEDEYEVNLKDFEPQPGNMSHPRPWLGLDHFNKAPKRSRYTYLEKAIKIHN
Take `CN1[C@@H]2C[C@@H](OC(=O)[C@H](CO)c3ccccc3)C[C@H]1[C@@H]1O[C@@H]12` [Scopolamine HBr]: the inhibition at 50 µM was below 5%.
As to `CCCC[N+]1(C)[C@@H]2C[C@@H](OC(=O)[C@H](CO)c3ccccc3)C[C@H]1[C@@H]1O[C@@H]12` (some centres unmarked) [Scopolamine n-butylbromide], the inhibition at 50 µM is below 5%.
As to `Cc1ncc([N+](=O)[O-])n1CC(C)O` (centres unmarked) [Secnidazole], the inhibition at 50 µM was below 5%.
Regarding `CC1(C)CC[C@]2(C(=O)O)CCC3=C([C@@H](CCl)C[C@@H]4[C@@]5(C)C[C@H](O)[C@H](O)[C@@](C)(C(=O)O)[C@@H]5CC[C@@]34C)[C@@H]2C1` [Senegenin], the inhibition at 50 µM is below 5%.
As for `CC(C)CC(N(C)C)C1(c2ccc(Cl)cc2)CCC1` (centres unmarked) [Sibutramine HCl], the figure is below 5%; as for `CN/C(=N\c1ccc(C2=NNC(=O)CC2C)cc1)NC#N` (centres unmarked) [Siguazodan], below 5%.
Next, `CCC(C)(C)C(=O)O[C@H]1C[C@@H](C)C=C2C=C[C@H](C)[C@H](CC[C@@H]3C[C@@H](O)CC(=O)O3)[C@H]21` [Simvastatin]: below 5%; `O=C(O)Cc1ccccc1` [Sodium phenylacetate]: below 5%.
On to `O=C(O)CCCc1ccccc1` [Sodium phenylbutyrate], for which the inhibition at 50 µM was below 5%.
On to `CC(C)NCC(O)c1ccc(NS(C)(=O)=O)cc1` (centres unmarked) [Sotalol HCl], for which the inhibition at 50 µM was below 5%.
On to `C[C@@H]1CN(c2c(F)c(N)c3c(=O)c(C(=O)O)cn(C4CC4)c3c2F)C[C@H](C)N1` [Sparfloxacin], for which the inhibition at 50 µM is below 5%.
As for `CN[C@@H]1[C@H](O)[C@H](NC)[C@H]2O[C@@]3(O)C(=O)C[C@@H](C)O[C@H]3O[C@@H]2[C@H]1O` [Spectinomycin], the figure is below 5%.
Consider `O=C(CCCN1CCC2(CC1)C(=O)NCN2c1ccccc1)c1ccc(F)cc1` [Spiperone], for which the inhibition at 50 µM is below 5%.
On to `CC(=O)S[C@@H]1CC2=CC(=O)CC[C@]2(C)[C@H]2CC[C@@]3(C)[C@@H](CC[C@@]34CCC(=O)O4)[C@H]12` [Spironolactone], for which the inhibition at 50 µM was determined as 36.4%.
Next, `C[C@]12Cc3c[nH]nc3C[C@@H]1CC[C@@H]1[C@@H]2CC[C@@]2(C)[C@H]1CC[C@]2(C)O` [Stanozolol]: below 5%; `CN[C@@H]1[C@H](O[C@H]2[C@H](O[C@H]3[C@H](O)[C@@H](O)[C@H](N=C(N)N)[C@@H](O)[C@@H]3N=C(N)N)O[C@@H](C)[C@]2(O)C=O)O[C@@H](CO)[C@H](O)[C@H]1O` [Streptomycin sulfate]: below 5%; `O=C1C[C@@H]2OCC=C3CN4CC[C@]56c7ccccc7N1[C@H]5[C@H]2[C@H]3C[C@H]46` [Strychnine HCl]: below 5%.
As for `C[N+](C)(C)CCOC(=O)CCC(=O)OCC[N+](C)(C)C` [Succinylcholine], the inhibition at 50 µM was below 5%.
For `CC1(C)[C@H](C(=O)O)N2C(=O)C[C@H]2S1(=O)=O` [Sulbactam], the inhibition at 50 µM is below 5%.
For the molecule `Nc1ccc(S(=O)(=O)Nc2ncccn2)cc1` [Sulfadiazine], the inhibition at 50 µM was below 5%.
As for `COc1cc(NS(=O)(=O)c2ccc(N)cc2)nc(OC)n1` [Sulfadimethoxine], the figure is below 5%.
As for `COc1ncnc(NS(=O)(=O)c2ccc(N)cc2)c1OC` [Sulfadoxine], the figure is below 5%; as for `O=C(O)c1cc(/N=N/c2ccc(S(=O)(=O)Nc3ccccn3)cc2)ccc1O` [Sulfasalazine], below 5%; as for `CCN1CCC[C@H]1CNC(=O)c1cc(S(N)(=O)=O)ccc1OC` [Sulpiride s (-)], below 5%.
As for `Cc1ccc(C(=O)Nc2ccc(S(=O)(=O)O)c3cc(S(=O)(=O)O)cc(S(=O)(=O)O)c23)cc1NC(=O)c1cccc(NC(=O)Nc2cccc(C(=O)Nc3cc(C(=O)Nc4ccc(S(=O)(=O)O)c5cc(S(=O)(=O)O)cc(S(=O)(=O)O)c45)ccc3C)c2)c1` [Suramin sodium], the inhibition at 50 µM is below 5%.
For the molecule `CC/C(=C(\c1ccccc1)c1ccc(OCCN(C)C)cc1)c1ccccc1` [Tamoxifen citrate], the inhibition at 50 µM is below 5%.
